Experimental data reported in patent US7531575B2, “Method of modulating cellular activity and agents useful for same” (Eberhard-Karls-Universität Tübingin, priority 2002, dated 2009).

How the values were obtained:
Format in all cases: cell-based, murine
iNOS [1] = assay: iNOS protein immunoblot, LPS-stimulated N9 microglia
Description: (§1) TNL was a generous gift of Kissei Pharmaceuticals, LPC (Escherichia coli, 0127:BS), phorbol 12-myristate 13-acetate (PMA) and dexamethasone (DEX) were obtained from Sigma, BAY 11-7082 (BAY), NF-κB SN50 inhibitory peptide (SN50), GF 109203X (GFX) and rottlerin (ROT) were purchased from Biomol. PD098059 (PD) was obtained from Calbiochem. Purified murine interferon-γ (IFN-γ) was purchased from Roche Diagnostics. N9 murine microglial cells were a kind gift from P. Ricciardi-Castagnoli (Righi, M. et al. 1989 supra). Cells were cultured in Dulbecco's modified Eagle's medium (DMEM) supplemented with 10% fetal calf serum (FCS), 2 mM glutamine, penicillin (100 unit/mL) and streptomycin (100 μg/mL) and maintained at 37° in an atmosphere of 5% CO2. Viability was assessed by crystal violet staining.
For the preparation of whole cell lysates, the cells were lysed in 0.1 M Tris-HCl (pH 7.2) containing 0.1% NP40, 0.1 mM EDTA and 5 μg/mL phenylmethylsulphonyl fluoride. Twenty micrograms protein was separated by 10-12% SDS-PAGE and electroblotted on nitrocellulose membrane. Equal loading was controlled by Ponceau S staining. Immunodetection was performed using the following antibodies: anti-iNOS rabbit polyclonal antibody (1:1000, Cayman), antiphospho-IκBα mouse monoclonal antibody (1:1000), anti-PKCδ mouse monoclonal antibody (1:2000), antiphospho-MARCKS rabbit polyclonal antibody (1:1000), antiphospho-ERK-1/2, antiphospho-AKT, antiphospho-p38 mouse monoclonal antibodies (1:2000), anti-ERK-1/2, anti-AKT mouse monoclonal antibodies (1:500, all from Signal Transduction Laboratories). Bands were visualized using horseradish peroxidase-conjugated anti-rabbit IgG (1:4000 SantaCruz) or anti-mouse IgG (1:4000, Amersham).

iNOS [2] = assay: iNOS activity by Griess assay (NO2 release), IFN-γ-stimulated N9 microglia; conditions: N9 cells, IFN-γ 200 u ml, 48 h, dexamethasone 500 nM
Procedure: Tranilast was a generous gift of Kissei Pharmaceuticals (Nagano, Japan). Murine recombinant IFN-γ was purchased from Boehringer (Mannheim, Germany). Dexamethasone (DEX) was obtained from Sigma (Deisenhofen, Germany). N9 murine microglial cells were a kind gift from P. Ricciardi-Castagnoli (Milano, Italy) (Righi, M., Mori, L., De Libero, G., Sironi, M., Biondi, A., Mantovani, A., Donini, S. D. and Ricciardi-Castagnoli, P. Eur J Immunol 19(8):1443-1448, 1989). The cells were cultured in Dulbecco's modified Eagle's medium (DMEM) supplemented with 10% foetal calf serum (FCS), 2 mM glutamine and penicillin ([…])/streptomycin (100 μg ml), and maintained at 37° C. in an atmosphere of 5% CO2. Viability was assessed by crystal violet staining.
iNOS activity was assessed by the Griess assay as described elsewhere (Rieger, J., Stander, M., Loschmann, P. A., Heneka, M., Dichgans, J., Klockgether, T. and Weller, M., Oncogene, 17:2323-2332, 1998). Briefly, conditioned supernatant (100 μl) was incubated with an equal volume of 1% sulphanilamide/0.1% naphthyl ethylene diamine dihydrochloride/2.5% H3PO4 (Griess reagent) (Green, L. C., Wagner, D. A., Glogowski, J., Skipper, P. I., Wishnok, J. S, and Tannenbaum, S. R., Anal. Biochem., 126:131-138, 1982), incubated for 5 min at room temperature, and the absorbance at […] determined. Solutions of NaNO2 diluted in DMEM served as standards. The absorbance readings resulting from DMEM alone were subtracted from the sample values. Cell density was assessed using crystal violet staining to control for differences in cell proliferation. iNOS activity is thus expressed here as NO2 accumulated per 48 h per 10^5 cells.

iNOS [3] = assay: iNOS activity by Griess assay (nitrite formation), LPS-stimulated N9 microglia; conditions: N9 cells
Description: as §1
iNOS activity was assessed by the Griess assay (Platten, M., Wick, W., Wischhusen, J. and Weller, M. Br J Pharmacol 134(6):1279-1284, 2001). Briefly, conditioned supernatant was incubated with an equal volume of Griess reagent containing 1% sulphanilamide, 0.1% naphthylethylenediamine dihydrochloride and 2.5% H3PO4 (Green, L. C., Wagner, D. A., Glogowski, J., Skipper, P. I., Wishnok, J. S, and Tannenbaum, S. R. Anal. Biochem., 126:131-138, 1982) for 5 min. at room temperature. The absorbance was measured at 546 nm. NaNO2 diluted in DMEM served as a standard. To control for cell number, the cells were stained with crystal violet. iNOS activity is expressed as nitrite accumulated in 48 hr/10^5 cells.

PKCδ = PKCδ immunoblot after long-term PMA in N9 microglia; conditions: N9 cells, PMA 100 nM, 24 hr treatment, data not shown
Description: as §1
(§2) For the preparation of whole cell lysates, the cells were lysed in 0.1 M Tris-HCl (pH 7.2) containing 0.1% NP40, 0.1 mM EDTA and 5 μg/mL phenylmethylsulphonyl fluoride. Twenty micrograms protein was separated by 10-12% SDS-PAGE and electroblotted on nitrocellulose membrane. Equal loading was controlled by Ponceau S staining. […]

ERK-1/2 = assay: phospho-ERK-1/2 immunoblot after PKC depletion, LPS-stimulated N9 microglia; conditions: N9 cells, prolonged pretreatment with PMA 100 nM 24 hr, then LPS 10 μg/mL
Description: as §1, §2

CC(=O)c1c(O)c(C)c(O)c(Cc2c(O)c3c(c(C(=O)/C=C/c4ccccc4)c2O)OC(C)(C)C=C3)c1O [ROT, rottlerin]
iNOS protein accumulation after LPS (iNOS [1]; N9 cells, LPS 10 μg/mL 24 hr, ROT at concentrations as low as 5 μM): strongly inhibited

C[C@@H]1C[C@H]2[C@@H]3CCC4=CC(=O)C=C[C@]4(C)[C@@]3(F)[C@@H](O)C[C@]2(C)[C@@]1(O)C(=O)CO [dexamethasone]
reduction of the amount of NO2 (Griess assay) (iNOS [2]): 75%

COc1cccc(-c2cc(=O)c3ccccc3o2)c1N [PD]
LPS-mediated nitrite formation (iNOS [3]; LPS, 40 μM PD, vehicle-treated cells 16.6±0.3): 10.7±0.4 μM/10^4 cells/48 hr

CCCCCCCCCCCCCC(=O)O[C@@H]1[C@@H](C)[C@@]2(O)[C@@H](C=C(CO)C[C@]3(O)C(=O)C(C)=C[C@@H]23)[C@@H]2C(C)(C)[C@]12OC(C)=O [PMA, phorbol 12-myristate 13-acetate]
reduction of iNOS protein (densitometry) (iNOS [1]; N9 cells, 24-hr exposure to PMA 100 nM, then LPS 10 μg/mL for 24 hr): 80%
LPS-mediated iNOS protein expression (iNOS [1]; N9 cells, PMA 100 nM pretreatment 15 min, LPS 10 μg/mL, 24 hr): superinduction
iNOS protein expression in the absence of LPS (iNOS [1]; N9 cells, PMA 100 nM, no LPS): did not induce
LPS-mediated nitrite formation (iNOS [3]; PMA 100 nM pretreatment 15 min, LPS 10 μg/mL, 48 hr): superinduction
PKCδ protein level (PKCδ): effectively depleted
LPS-induced ERK-1/2 phosphorylation (ERK-1/2): failed to induce

CN(C)CCCn1cc(C2=C(c3c[nH]c4ccccc34)C(=O)NC2=O)c2ccccc21 [GFX]
PMA superinduction of iNOS protein in LPS-stimulated cells (iNOS [1]; PMA 100 nM 15 min, LPS 10 μg/mL 24 hr, GFX 2 μM): abolished

Cc1ccc(S(=O)(=O)/C=C/C#N)cc1 [BAY]
LPS-stimulated NO release (iNOS [3]; LPS, BAY 20 μM, vehicle-treated cells 14.6±1.0): 11.1±0.7 μM/10^4 cells/48 hr
